Assay results as given in patent US6545131B1, “Tissue specific prodrug” (priority 1997, dated 2003).
Like-named read-outs stand apart in the source and are kept apart here.

Key:
[1] = Clonogenic survival of TSU-Pr1 cells after 72 hours exposure to TG analogs; assay type: cell-based, human; conditions: human; TSU-Pr1, 72 hours exposure; mean (n=5) ± standard error; read-out: LC50 (concentration needed to kill 50% of clonogenic cells)
Protocol: The primary amine-containing thapsigargin analogs of the invention have non-specific toxicity toward cells. This toxicity is measured as the concentration of analog needed to kill 50% of clonogenic cells (LC50). The LC50 of the analogs of the invention is desirably at most 20 μM, preferably at most 5 μM, and more preferably at most 500 nM of analog.
Percentage clonogenic survival of TSU-Pr1 (2×10^5 cells) following 72 hours of exposure to varying concentrations of TG analogs was performed as described in Martikainen et al. Cancer Res., 51, 4693-4700 (1991).
(§1) The IC50 results are mean (n=3)±standard error. The LC50 results are mean (n=5)±standard error. The entry “ND” stands for “not determined”. Clonogenic survival not determined above 10 μM for dBTG. Analogs with −boc have a t-butoxycarbonyl (boc) protected amino group.
The androgen responsive PSA-producing LNCaP and androgen independent PSA non-producing TSU-Pr1 are human prostate cancer lines were obtained from ATCC (Rockville, Md.) and maintained by serial passage in RPMI 1640 media containing 10% fetal calf serum with 100 units/ml penicillin G, and 100 units/ml streptomycin sulfate (antibiotics from M.A. Bioproducts, Walkerville, Md.) as standard media in 5% CO2/95% air at 37° C. The origins and characteristics of the LNCaP and TSU-Pr1 cell lines are described in Horoszewicz, et al., Cancer Res., 43:1809-1818, (1980)and Iizumi, et al., J. Urol, 137: 1304-1306, (1987).

[2] = target: T1, endoplasmic reticulum Ca2+-ATPase (SERCA), SR vesicles from rabbit skeletal muscle (Oryctolagus cuniculus, UniProt P04191); experiment: SERCA inhibition: 45Ca2+ uptake to sarcoplasmic reticulum vesicles; assay type: biochemical
T1 construct: sarcoplasmic reticulum (SR) vesicles prepared from rabbit skeletal muscle; from tissue; host or cells: rabbit skeletal muscle sarcoplasmic reticulum vesicles
Protocol: The primary amine-containing thapsigargin analogs of the invention have endoplasmic reticulum Ca^2+-ATPase inhibitory activity. This activity is measured as the concentration of analog needed to inhibit 50% of this ATPase (IC50). The IC50 of the analogs of the invention is desirably at most 500 nM, preferably at most 200 nM, and more preferably at most 50 nM of analog.
The inhibitory potency of thapsigargin and its analogs was determined as the concentration required to produce 50% inhibition (i.e. IC50) of ^45Ca^2+ uptake to sarcoplasmic reticulum (SR) vesicles prepared from rabbit skeletal muscle by the method of De Meis and Hasselbach (J. Biol. Chem., 246: 4759-4763, 1971). The ^45Ca^2+ uptake assay was as described previously (Christensen, et al., FEBS, 335: 345-348, 1993), with the following modifications: 5 μg/ml of SR protein was incubated at 25EC and free Ca^2+ adjusted to 100 nM using 4 min. uptake time. Under these conditions, Ca^2+ could proceed linearly with time for at least 8 minutes. Measurements of Ca^2+ within TSU cells was determined as described previously (Lin et al., The Prostate, 33:201-207, 1997).
as §1

[3] = mean (n=3) ± standard error, 5 μg/ml SR protein, free Ca2+ 100 nM, 4 min uptake, read-out: IC50 (50% inhibition of 45Ca2+ uptake to SR vesicles)

T1 sequence (P04191 1-994 isoform P04191-2): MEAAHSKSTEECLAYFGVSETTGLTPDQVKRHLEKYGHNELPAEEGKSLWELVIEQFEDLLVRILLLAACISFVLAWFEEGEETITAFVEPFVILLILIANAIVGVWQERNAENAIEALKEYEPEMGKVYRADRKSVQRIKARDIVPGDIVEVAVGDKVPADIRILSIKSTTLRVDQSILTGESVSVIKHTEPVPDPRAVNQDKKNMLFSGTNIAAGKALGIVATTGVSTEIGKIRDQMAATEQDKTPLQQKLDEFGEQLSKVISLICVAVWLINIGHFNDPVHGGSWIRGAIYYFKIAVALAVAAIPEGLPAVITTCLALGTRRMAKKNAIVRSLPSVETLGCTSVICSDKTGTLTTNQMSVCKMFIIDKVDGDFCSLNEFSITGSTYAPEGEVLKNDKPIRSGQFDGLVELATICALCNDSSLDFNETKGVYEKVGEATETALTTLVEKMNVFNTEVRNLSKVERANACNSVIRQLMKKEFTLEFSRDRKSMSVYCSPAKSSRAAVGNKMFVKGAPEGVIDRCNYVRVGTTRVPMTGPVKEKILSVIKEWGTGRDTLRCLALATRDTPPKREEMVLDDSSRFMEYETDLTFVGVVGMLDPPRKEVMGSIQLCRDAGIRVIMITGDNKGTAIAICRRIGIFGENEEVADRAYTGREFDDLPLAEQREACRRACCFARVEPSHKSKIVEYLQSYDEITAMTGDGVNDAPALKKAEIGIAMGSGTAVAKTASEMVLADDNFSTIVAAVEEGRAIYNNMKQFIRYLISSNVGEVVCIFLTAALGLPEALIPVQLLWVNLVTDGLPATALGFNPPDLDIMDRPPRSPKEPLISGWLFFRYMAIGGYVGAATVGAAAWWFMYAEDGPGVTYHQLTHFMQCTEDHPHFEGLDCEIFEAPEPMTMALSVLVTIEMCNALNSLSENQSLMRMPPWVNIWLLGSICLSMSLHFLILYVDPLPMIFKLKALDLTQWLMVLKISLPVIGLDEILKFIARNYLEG

| Structure (SMILES) | CC50 [1] | IC50 [2, 3] | IC50 [2] |
| --- | --- | --- | --- |
| C/C=C(/C)C(=O)O[C@H]1C(C)=C2[C@H]([C@@H]1OC(=O)CCCCCCC)[C@@](C)(OC(C)=O)C[C@H](OC(=O)c1ccc(N)cc1)[C@@]1(O)[C@H]2OC(=O)[C@@]1(C)O [ABT, 8-O-(4-aminobenzoyl)-8-O-debutanoylthapsigargin] | 4000 ± 300 nM | 18.4 ± 0.3 nM |  |
| C/C=C(/C)C(=O)O[C@H]1C(C)=C2[C@H]([C@@H]1OC(=O)CCCCCCC)[C@@](C)(OC(C)=O)C[C@H](OC(=O)CCCc1ccc(N)cc1)[C@@]1(O)[C@H]2OC(=O)[C@@]1(C)O [ABuT, 8-O-(4-[4-aminophenyl]butanoyl)-8-O-debutanoylthapsigargin] | 225 ± 20 nM | 18.4 ± 1.4 nM |  |
| C/C=C(/C)C(=O)O[C@H]1C(C)=C2[C@H]([C@@H]1OC(=O)CCCCCCC)[C@@](C)(OC(C)=O)C[C@H](OC(=O)CCCc1ccc(NC(=O)OC(C)(C)C)cc1)[C@@]1(O)[C@H]2OC(=O)[C@@]1(C)O [ABuT-boc, 8-O-(4-[4-t-butoxycarbonylaminophenyl]butanoyl)-8-O-debutanoylthapsigargin] |  |  | 14.4 ± 0.8 nM |
| C/C=C(/C)C(=O)O[C@H]1C(C)=C2[C@H]([C@@H]1OC(=O)CCCCCCC)[C@@](C)(OC(C)=O)C[C@H](OC(=O)/C=C/c1ccc(NC(=O)OC(C)(C)C)cc1)[C@@]1(O)[C@H]2OC(=O)[C@@]1(C)O [ACT-boc, 8-O-(4-t-butoxycarbonylaminocinnamoyl)-8-O-debutanoylthapsigargin] | 1900 ± 100 nM | 20.3 ± 0.2 nM |  |
| C/C=C(/C)C(=O)O[C@H]1C(C)=C2[C@H]([C@@H]1OC(=O)CCCCCCC)[C@@](C)(OC(C)=O)C[C@H](OC(=O)CCc1ccc(N)cc1)[C@@]1(O)[C@H]2OC(=O)[C@@]1(C)O [APT, 8-O-(3-[4-aminophenyl]propionyl)-8-O-debutanoylthapsigargin] | 275 ± 60 nM | 16.2 ± 0.9 nM |  |
| C/C=C(/C)C(=O)O[C@H]1C(C)=C2[C@H]([C@@H]1OC(=O)CCCCCCC)[C@@](C)(OC(C)=O)C[C@H](OC(=O)CCc1ccc(NC(=O)OC(C)(C)C)cc1)[C@@]1(O)[C@H]2OC(=O)[C@@]1(C)O [APT-boc, 8-O-(3-[4-t-butoxycarbonylaminophenyl]propionyl)-8-O-debutanoylthapsigargin] | 870 ± 15 nM | 21.2 ± 0.8 nM |  |
| C/C=C(/C)C(=O)O[C@H]1C(C)=C2[C@H]([C@@H]1OC(=O)CCCCCCC)[C@@](C)(OC(C)=O)C[C@H](OC(=O)CCCC(=O)Nc1ccc(C)c(N)c1)[C@@]1(O)[C@H]2OC(=O)[C@@]1(C)O [GDT, 8-O-{4-(N-[3-amino-4-methylphenyl]-carboxamido)butanoyl}-8-O-debutanoylthapsigarg in] | 16600 ± 400 nM | 316 ± 23 nM |  |
| C/C=C(/C)C(=O)O[C@H]1C(C)=C2[C@H]([C@@H]1OC(=O)CCCCCCC)[C@@](C)(OC(C)=O)C[C@H](OC(=O)CCCCCC(=O)Nc1ccc(C)c(N)c1)[C@@]1(O)[C@H]2OC(=O)[C@@]1(C)O [PDT, 8-O-{6-(N-[3-amino-4-methylphenyl]-carboxamido)hexanoyl}-8-O-debutanoylthapsigargin] | 3100 ± 200 nM | 17.7 ± 2.4 nM |  |
| C/C=C(/C)C(=O)O[C@H]1C(C)=C2[C@H]([C@@H]1OC(=O)CCCCCCC)[C@@](C)(OC(C)=O)C[C@H](OC(=O)CCC(=O)Nc1ccc(C)c(N)c1)[C@@]1(O)[C@H]2OC(=O)[C@@]1(C)O [SDT, 8-O-{3-(N-[3-amino-4-methylphenyl]-carboxamido)propanoyl}-8-O-debutanoylthapsigargin] | > 25000 nM | 1280 ± 91 nM |  |
